# “And” between values parts separate entries of the source, which are not always exact repeats. Equal values may be shown once.
# What was measured:
# gelatin [1] = assay: Advanced Glycation End Product Assay (AGE Assay), yellowness (b*) readout; type: biochemical; conditions: 24 hours; for % Δb* (yellowness) from a treatment vs positive glycation control / Convert to % Δb* inhibition (100%-% Δb*) / Convert to % Δb* inhibition (100-% Δb*): samples 1-3
# Protocol: (§1) The AGE Assay provides an in vitro method of determining how a test agent impacts glycation. In particular, a material of interest can be applied to gelatin, which acts as a surrogate for collagen (i.e., a heterogeneous mixture of high-average-molecular-mass, water-soluble proteins present in collagen), at neutral pH range. A glycating reagent is added to the gelatin matrix to initialize glycation reaction. The resulting AGEs detected by a spectrophotometer. When testing a material of interest, such as lactobionic acid and/or white water lily extract is added to the gelatin sample, it reacts with the proteins in the gelatin, much in the same way as it would with collagen. Glycation reaction will be initiated when glycating reagent is added into this material and gelatin matrix and will produce AGEs. A positive (pos) glycation control group is set up the same way as testing material groups to contain gelatin and glycating reagent but less any treatment material. The positive control group depicts how much glycation and yellowness can be formed without perturbation by any treatment material. The spectrophotometer detects the fluorescence intensity (“FLR”) or yellowness (b*) associated with the resulting AGEs, which can then be correlated to the amount of glycation that occurs in skin. Lower b* and FLR values correspond to less AGEs, and thus less glycation.
# (§2) Three replicates of each test samples are prepared in a 96-well plate (e.g., a FALCON brand 96-well tissue culture plate or equivalent) at equal and defined volume. The plate(s) containing the test samples are placed in a standard cell culture incubator (e.g., THERMO SCIENTIFIC FORMA brand incubator available from Fisher Scientific, Waltham, MA or equivalent) and incubated for the duration of the test at 37° C. with 5% CO2 and 95% relative humidity. Fluorescence intensity (FLR) and yellowness are measured at the start of test (time=0) and monitored for 24 hours. To measure FLR or b*, the plate(s) containing the test samples are removed from the incubator and placed in a SPECTRAMAX Plus brand spectrophotometer (available from Molecular Devices, Sunnyvale, California) or equivalent. To detect fluorescence intensity (“FLR”), the spectrophotometer is set at 400/465 nm (ex/em). To detect yellowness (b*), the spectrophotometer is set to collect absorbance spectrum from 350 nm to 750 nm in 10 nm increments. The absorbance spectra from the yellowness measurement are then converted to L*a*b* values by a computer using suitable conversion software.
# (§3) The change in fluorescence intensity (“ΔFLR”) is determined by comparing the FLR of a well at a sampling time point to the initial FLR at time=0. The change in yellowness (“Δb*”) at a particular time point is determined by comparing the initial b* value at time=0 to the b* value at the time point of interest. To determine the relative amount of glycation or yellowness formed due to a treatment effect compared to the positive glycation control group, which doesn't contain any active treatment, the ΔFLR and Δb* values from a treatment group is normalized against the corresponding values from the positive glycation control group (pos glycation) according to the following equation: […]
# (§4) The test samples were prepared in triplicate for each testing group on a 96-well plate with 250 μl volume per well. Each well contains 2.25 mg gelatin (available from Sigma® as Catalog #G1393), the testing material(s) diluted to desired concentration, 40 mM DL-Glyceraldehyde (available from Sigma®, Catalog #G5001-5G), and a sufficient quantity of Dulbecco's phosphate buffered saline (“DPBS”) (available from Gibco's, Catalog #14190-144). The vehicle control contained 2.25 mg gelatin and a sufficient quantity of DPBS. The positive glycation control contained 2.25 mg gelatin, 40 mM DL-glyceraldehyde and DPBS.
# (§5) The average glycation, ΔFLR, and yellowness, Δb*, were determined for each sample according to the AGE Assay described herein. The duration of the test was 24 hours. […]
# gelatin [2] = assay: Advanced Glycation End Product Assay (AGE Assay), fluorescence intensity (FLR, glycation) readout; type: biochemical; conditions: 24 hours
# Protocol: as §1, §2, §3, §4, §5
# [3] = 0.101% lactobionic acid, Table 3
# [4] = 0.101% lactobionic acid, Table 4, samples 1-3
# [5] = 0.2% lactobionic acid, Table 2, samples 1-3
structure (smiles),measurement,setting,value
"O=C(O)[C@H](O)[C@@H](O)[C@H](O[C@@H]1O[C@H](CO)[C@H](O)[C@H](O)[C@H]1O)[C@H](O)CO [LBA, lactobionic acid]",Mean % Δb* inhibition for each group,"gelatin [1]; 0.1% LBA, Table 1",27%
same,% Δb* (yellowness) from a treatment vs positive glycation control,"gelatin [1]; 0.1% LBA, Table 1",73%
same,Convert to % Δb* inhibition (100%-% Δb*),"gelatin [1]; 0.1% LBA, Table 1",27%
same,Mean % Δb* inhibition for each group,"gelatin [1]; 0.1% LBA, Table 5",32%
same,% Δb* (yellowness) from a treatment vs positive glycation control,"gelatin [1]; 0.1% LBA, Table 5",68% and 69% and 67%
same,Convert to % Δb* inhibition (100-% Δb*),"gelatin [1]; 0.1% LBA, Table 5",32% and 31% and 33%
same,Mean % Δb* inhibition for each group,gelatin [1]; [3],32%
same,% Δb* (yellowness) from a treatment vs positive glycation control,gelatin [1]; [3],68%
same,Convert to % Δb* inhibition (100-% Δb*),gelatin [1]; [3],32%
same,Mean % Δb* inhibition for each group,"gelatin [1]; 0.2% lactobionic acid, Table 1",49%
same,% Δb* (yellowness) from a treatment vs positive glycation control,"gelatin [1]; 0.2% lactobionic acid, Table 1",50% and 53% and 51%
same,Convert to % Δb* inhibition (100%-% Δb*),"gelatin [1]; 0.2% lactobionic acid, Table 1",50% and 47% and 49%
same,Mean % ΔFLR inhibition for each group,"gelatin [2]; 0.1% LBA, Table 2",24%
same,% ΔFLR (glycation) normalized vs positive glycation control,"gelatin [2]; 0.1% LBA, Table 2, samples 1-3",77% and 75%
same,Convert to % ΔFLR inhibition (100-% ΔFLR),"gelatin [2]; 0.1% LBA, Table 2, samples 1-3",23% and 25%
same,Mean % ΔFLR inhibition for each group,"gelatin [2]; 0.1% LBA, Table 6",30%
same,% ΔFLR (glycation) normalized vs positive glycation ctrl,"gelatin [2]; 0.1% LBA, Table 6, samples 1-3",69% and 71% and 70%
same,Convert to % ΔFLR inhibition (100-% ΔFLR),"gelatin [2]; 0.1% LBA, Table 6, samples 1-3",31% and 29% and 30%
same,Mean % ΔFLR inhibition for each group,"gelatin [2]; 0.101% lactobionic acid, Table 4",27%
same,% ΔFLR (glycation) normalized vs positive glycation control,gelatin [2]; [4],73% and 74%
same,Convert to % ΔFLR inhibition (100-% ΔFLR),gelatin [2]; [4],27% and 26%
same,Mean % ΔFLR inhibition for each group,"gelatin [2]; 0.2% lactobionic acid, Table 2",44%
same,% ΔFLR (glycation) normalized vs positive glycation control,gelatin [2]; [5],55% and 56%
same,Convert to % ΔFLR inhibition (100-% ΔFLR),gelatin [2]; [5],45% and 44%

# Source: US20240285508A1, “METHOD AND COMPOSITION FOR IMPROVING THE APPEARANCE OF SKIN” (The Procter & Gamble Company, priority 2023, published 2024)
